Laboratory results as given in US5462926A (Biomeasure, Inc., priority 1993, dated 1995).
Where two headings read alike, the source gives them in different places. Where a SMILES comes first, the peptide text is derived from it. Bridges are numbered along the chain shown (N, C = ends). [ ]: non-standard residue; d: D form. 2Nal = N[C@@H](Cc1ccc2ccccc2c1)C(=O)O; d2Nal = N[C@H](Cc1ccc2ccccc2c1)C(=O)O

Assays:
[1] = biological target: T1, NMB receptors on C-6 cells (Rattus norvegicus, UniProt P24053); assay: Binding of 125I-[D-Tyr0]NMB to C-6 glioblastoma cells; details: Ki by Cheng method, read-out: Ki 125I-NMB Binding, NMB Receptor, C-6 Cells
T1 construct: endogenous in cells; host or cells: rat glioblastoma C-6 cells
T1 sequence (P24053 1-390): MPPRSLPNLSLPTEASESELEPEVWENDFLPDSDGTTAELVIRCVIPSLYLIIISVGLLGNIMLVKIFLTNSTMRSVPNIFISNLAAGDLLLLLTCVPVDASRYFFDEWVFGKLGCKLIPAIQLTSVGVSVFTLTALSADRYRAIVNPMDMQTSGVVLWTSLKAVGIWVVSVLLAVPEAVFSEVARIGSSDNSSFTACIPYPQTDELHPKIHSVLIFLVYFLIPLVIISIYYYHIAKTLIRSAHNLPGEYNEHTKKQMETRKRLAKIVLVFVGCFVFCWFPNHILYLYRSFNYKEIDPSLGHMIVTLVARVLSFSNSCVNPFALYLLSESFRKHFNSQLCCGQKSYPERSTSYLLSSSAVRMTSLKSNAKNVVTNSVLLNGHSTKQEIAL
In short: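 Disaggregated rat C-6 glioblastoma cells (15×10^6/ml) or NMB-R-transfected cells (2×10^6/ml) were incubated with 75 pM 125I-[D-Tyr0]NMB for 60 min at 22° C in HEPES binding buffer with 0.2% BSA, pH 7.4. Values are saturable binding: total minus binding in the presence of excess unlabelled NMB.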

rat NMB receptor = biological target: T2, rat NMB receptor (Rattus norvegicus, UniProt P24053); assay: Binding of 125I-[D-Tyr0]NMB to NMB-R transfected BALB 3T3 cells; details: for fold decrease in NMB receptor affinity compared with cyclo SS-octa (#1): structure-function comparison from Table 1
T2 construct: a full length NMB-preferring bombesin receptor clone generated from rat esophagus; expressed in transfected cells
T2 sequence (P24053 1-390): T1 sequence (P24053 1-390)

[2] = biological target: T3, GRP receptors on rat pancreatic acini (Rattus norvegicus, UniProt P52500); assay: Binding of 125I-[Tyr4]bombesin to pancreatic acini; details: read-out: Ki 125I-[Tyr4]Bn Binding, GRP Receptor, Rat Pancreatic Acini; Ki by Cheng method
T3 construct: from tissue; host or cells: dispersed pancreatic acini
Text: Nonsaturable binding was<10% of total binding in all experiments.

mu opioid receptors = biological target: T4, mu opioid receptors (Rattus norvegicus, UniProt P33535); assay: Mu opioid membrane assay, [3H]DAGO, rat forebrain membranes; type: binding; details: Cheng method; unit inferred; read-out: affinity, [3H]DAGO, Rat Forebrain membranes (mu opioid receptors)
T4 construct: rat forebrain (TRH, mu and delta opioid membrane assays); from tissue; host or cells: rat forebrain membranes

NMB receptor [3] = biological target: T5, NMB receptor (Rattus norvegicus, UniProt P24053); assay: [3H]inositol phosphates in NMB-R transfected cells (alone or NMB-stimulated); type: cell-based; set-up: a full length NMB-preferring bombesin receptor clone generated from rat esophagus; expressed in transfected cells; details: NMB-R transfected cells; for IC50 / effect at 10 μM on NMB-stimulated increase in [3H]IP: 3 nM NMB; for [3H]IP, analog Alone (10 μM): analog 10 μM alone, control 13 ± 3; for [3H]IP, analog Plus NMB (3 nM): analog 10 μM plus NMB 3 nM, NMB without analog 186 ± 58
T5 sequence (P24053 1-390): T1 sequence (P24053 1-390)
In short: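 BALB 3T3 cells stably expressing rat NMB receptor, labelled 48 h at 37 °C with 100 μCi/ml myo-[3H]inositol, preincubated 15 min in buffer with 10 mM LiCl, then exposed 60 min at 37 °C to agonists or to 3 nM NMB plus antagonists. Total [3H]inositol phosphates isolated by anion-exchange chromatography.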

NMB receptor [4] = biological target: T5, NMB receptor; assay: NMB membrane receptor assay, 125I-NMB, rat olfactory bulb membranes; type: binding; set-up: Membranes were prepared from rat olfactory bulb (NMB membrane receptor assay); from tissue; host or cells: rat olfactory bulb membranes; details: for Ki: Cheng method, unit inferred, read-out: affinity, 125I-NMB, Rat Olfactory bulb membranes (neuromedin B receptors)
[5] = NMB-R transfected BALB 3T3 cells, Ki by Cheng method, read-out: Ki 125I-NMB Binding, NMB Receptor, Transfected Cells
[6] = read-out: IC50 NMB-stimulated [3H]IP, NMB Receptor, Transfected Cells
[7] = read-out: IC50 NMB-stimulated [3H]IP, Transfected Cells (values in μM)

T4 sequence (P33535 whole entry): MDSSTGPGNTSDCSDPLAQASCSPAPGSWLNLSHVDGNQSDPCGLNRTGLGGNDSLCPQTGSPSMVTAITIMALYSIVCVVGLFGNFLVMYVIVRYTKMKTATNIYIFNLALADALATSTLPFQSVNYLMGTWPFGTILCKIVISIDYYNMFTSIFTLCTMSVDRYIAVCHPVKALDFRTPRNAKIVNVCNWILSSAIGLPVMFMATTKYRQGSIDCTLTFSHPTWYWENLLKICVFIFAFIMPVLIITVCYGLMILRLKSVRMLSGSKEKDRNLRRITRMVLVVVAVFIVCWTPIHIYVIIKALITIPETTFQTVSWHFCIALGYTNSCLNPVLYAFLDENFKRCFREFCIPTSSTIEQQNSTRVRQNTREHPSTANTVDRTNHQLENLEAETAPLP
T3 sequence (P52500 whole entry): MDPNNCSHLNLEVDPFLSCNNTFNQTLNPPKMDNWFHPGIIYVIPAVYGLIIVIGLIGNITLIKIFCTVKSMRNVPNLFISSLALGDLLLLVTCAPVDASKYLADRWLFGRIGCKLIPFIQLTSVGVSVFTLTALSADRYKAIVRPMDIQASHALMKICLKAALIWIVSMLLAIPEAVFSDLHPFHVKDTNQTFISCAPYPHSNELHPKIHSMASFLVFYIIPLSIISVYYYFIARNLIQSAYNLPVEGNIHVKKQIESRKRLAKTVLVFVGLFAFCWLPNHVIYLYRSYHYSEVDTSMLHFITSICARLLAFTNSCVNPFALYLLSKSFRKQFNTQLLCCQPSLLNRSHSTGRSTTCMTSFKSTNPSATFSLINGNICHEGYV

With `CC(C)[C@@H]1NC(=O)[C@H](CCCCN)NC(=O)[C@@H](Cc2c[nH]c3ccccc23)NC(=O)[C@H](Cc2ccc(O)cc2)NC(=O)[C@H](NC(=O)[C@H](N)Cc2ccc3ccccc3c2)CSSC[C@@H](C(=O)N[C@@H](Cc2ccc3ccccc3c2)C(N)=O)NC1=O` [Analog #10, H2 -D-Nal-D-Cys-Tyr-D-Trp-Lys-Val-Cys-Nal-NH2] (H-[d2Nal][dC]Y[dW]KVC[2Nal]-NH2; disulfide 2-7) the Ki [1] was 1150 ± 518 nM, the Ki (rat NMB receptor; [5]) was 960 ± 109 nM and the “fold decrease in NMB receptor affinity compared with cyclo SS-octa (#1)” value (from here on “fold decrease in NMB receptor affinity”) (rat NMB receptor) was 5 fold. For the same molecule, the Ki [2] was greater than 10000 nM, the Ki (mu opioid receptors) was 1020 nM and the IC50 (NMB receptor [3]; [6]) was 3.99 ± 0.781 µM. The “effect at 10 μM on NMB-stimulated increase in [3H]IP” value (NMB receptor [3]) was “completely inhibited”, the “[3H]IP, analog Alone (10 μM)” value (NMB receptor [3]) was 10 ± 3 dym × 10^3 and the “[3H]IP, analog Plus NMB (3 nM)” value (NMB receptor [3]) was 4 ± 2 dym × 10^3. It also gave a Ki (NMB receptor [4]) of 920 ± 350 nM.
In the case of `CC(C)[C@@H]1NC(=O)[C@H](CCCCN)NC(=O)[C@@H](Cc2c[nH]c3ccccc23)NC(=O)[C@H](Cc2ccc(O)cc2)NC(=O)[C@@H](NC(=O)[C@H](N)Cc2ccc3ccccc3c2)CSSC[C@H](C(=O)N[C@@H](Cc2ccc3ccccc3c2)C(N)=O)NC1=O` [Analog #11, H2 -D-Nal-Cys-Tyr-D-Trp-Lys-Val-D-Cys-Nal-NH2] (H-[d2Nal]CY[dW]KV[dC][2Nal]-NH2; disulfide 2-7), the Ki [1] is reported as 1740 ± 345 nM, the Ki (rat NMB receptor; [5]) is reported as 1080 ± 199 nM and the “fold decrease in NMB receptor affinity” value (rat NMB receptor) is reported as 5 fold. It also gave a Ki [2] greater than 10000 nM, a Ki (mu opioid receptors) greater than 10000 nM and an IC50 (NMB receptor [3]; [6]) of 1.43 ± 0.119 µM. For the same molecule, the IC50 (NMB receptor [3]; [7]) was 1.2 to 1.8 µM, the “effect at 10 μM on NMB-stimulated increase in [3H]IP” value (NMB receptor [3]) was “completely inhibited” and the “[3H]IP, analog Alone (10 μM)” value (NMB receptor [3]) was 10 ± 1 dym × 10^3. The “[3H]IP, analog Plus NMB (3 nM)” value (NMB receptor [3]) was 7 ± 4 dym × 10^3, the Ki (NMB receptor [4]) was 230 ± 70 nM and the “fold greater affinity for NMB receptors than mu opioid receptors” value (NMB receptor [4]; membranes, Table 4) was greater than 50 fold.
With `CC(C)[C@@H]1NC(=O)[C@H](CCCCN)NC(=O)[C@@H](Cc2c[nH]c3ccccc23)NC(=O)[C@H](Cc2ccc(O)cc2)NC(=O)[C@@H](NC(=O)[C@H](N)Cc2c[nH]c3ccccc23)CSSC[C@@H](C(=O)N[C@@H](Cc2ccc3ccccc3c2)C(N)=O)NC1=O` [Analog #12, H2 -D-Trp-Cys-Tyr-D-Trp-Lys-Val-Cys-Nal-NH2] (H-[dW]CY[dW]KVC[2Nal]-NH2; disulfide 2-7) the Ki [1] was 1780 ± 109 nM, the Ki (rat NMB receptor; [5]) was 1410 ± 127 nM and the “fold by which cyclo SS-octa is more potent than the analog, 125I-NMB binding” value (rat NMB receptor; NMB-R transfected cells) was 9 fold. The Ki (rat NMB receptor; NMB-R transfected cells, value or range given for a group, read-out: K1, 125I-NMB binding to NMB-R transfected cells (text)) was 1400 to 2300 nM, the “fold decrease in NMB receptor affinity” value (rat NMB receptor) was 4 to 7 fold and the Ki [2] was greater than 10000 nM. For the same molecule, the Ki (mu opioid receptors) was greater than 10000 nM, the IC50 (NMB receptor [3]; [6]) was 4.69 ± 0.927 µM and the “[3H]IP, analog Alone (10 μM)” value (NMB receptor [3]) was 9 ± 2 dym × 10^3. The “[3H]IP, analog Plus NMB (3 nM)” value (NMB receptor [3]) was 43 ± 2 dym × 10^3 and the Ki (NMB receptor [4]) was 1180 ± 520 nM.
`NCCCC[C@@H]1NC(=O)[C@@H](Cc2c[nH]c3ccccc23)NC(=O)[C@H](Cc2ccc(O)cc2)NC(=O)[C@@H](NC(=O)[C@H](N)Cc2ccc3ccccc3c2)CSSC[C@@H](C(=O)N[C@@H](Cc2ccc3ccccc3c2)C(N)=O)NC(=O)[C@H](Cc2ccccc2)NC1=O` [Analog #13, H2 -D-Nal-Cys-Tyr-D-Trp-Lys-Phe-Cys-Nal-NH2] (H-[d2Nal]CY[dW]KFC[2Nal]-NH2; disulfide 2-7) was tested, and the Ki [1] was 213 ± 13 nM, the Ki (rat NMB receptor; [5]) was 397 ± 72 nM and the “fold by which cyclo SS-octa is more potent than the analog, 125I-NMB binding” value (rat NMB receptor; NMB-R transfected cells) was 2 fold. For the same molecule, the “fold decrease in NMB receptor affinity” value (rat NMB receptor) was 2 to 3 fold, the Ki [2] was greater than 10000 nM and the Ki (mu opioid receptors) was 1640 nM. The IC50 (NMB receptor [3]; [6]) was 1.17 ± 0.114 µM, the IC50 (NMB receptor [3]; [7]) was 1.2 to 1.8 µM and the “effect at 10 μM on NMB-stimulated increase in [3H]IP” value (NMB receptor [3]) was “completely inhibited”. For the same molecule, the “[3H]IP, analog Alone (10 μM)” value (NMB receptor [3]) was 10 ± 1 dym × 10^3, the “[3H]IP, analog Plus NMB (3 nM)” value (NMB receptor [3]) was 9 ± 4 dym × 10^3 and the Ki (NMB receptor [4]) was 270 ± 90 nM.
With `CC(C)[C@@H]1NC(=O)[C@H](Cc2c[nH]cn2)NC(=O)[C@@H](Cc2c[nH]c3ccccc23)NC(=O)[C@H](Cc2ccc(O)cc2)NC(=O)[C@@H](NC(=O)[C@H](N)Cc2ccc3ccccc3c2)CSSC[C@@H](C(=O)N[C@@H](Cc2ccc3ccccc3c2)C(N)=O)NC1=O` [Analog #14] (H-[d2Nal]CY[dW]HVC[2Nal]-NH2; disulfide 2-7; N-terminus assumed) the Ki [1] was 4940 ± 930 nM, the Ki (rat NMB receptor; [5]) was 9860 ± 1290 nM and the “fold by which cyclo SS-octa is more potent than the analog, 125I-NMB binding” value (rat NMB receptor; NMB-R transfected cells) was 45 fold. For the same molecule, the “fold decrease in NMB receptor affinity” value (rat NMB receptor) was 50 fold, the Ki [2] was greater than 10000 nM and the Ki (mu opioid receptors) was 500 nM. For the same molecule, the IC50 (NMB receptor [3]; [6]) was 11.9 ± 1.83 µM, the “[3H]IP, analog Alone (10 μM)” value (NMB receptor [3]) was 8 ± 1 dym × 10^3 and the “[3H]IP, analog Plus NMB (3 nM)” value (NMB receptor [3]) was 97 ± 7 dym × 10^3. For the same molecule, the Ki (NMB receptor [4]) was 470 ± 240 nM and the “fold higher affinity for NMB receptors than somatostatin receptors” value (NMB receptor [4]; membranes, Table 4) was 3 fold.
For `CC(C)[C@@H]1NC(=O)[C@H](CCCCN)NC(=O)[C@@H](Cc2ccc3ccccc3c2)NC(=O)[C@H](Cc2ccc(O)cc2)NC(=O)[C@@H](NC(=O)[C@H](N)Cc2ccc3ccccc3c2)CSSC[C@@H](C(=O)N[C@@H](Cc2ccc3ccccc3c2)C(N)=O)NC1=O` [Analog #17, H2 -D-Nal-Cys-Tyr-D-Nal-Lys-Val-Cys-Nal-NH2] (H-[d2Nal]CY[d2Nal]KVC[2Nal]-NH2; disulfide 2-7), the Ki [1] was 313 ± 33 nM, the Ki (rat NMB receptor; [5]) was 399 ± 68 nM and the “fold by which cyclo SS-octa is more potent than the analog, 125I-NMB binding” value (rat NMB receptor; NMB-R transfected cells) was 2 fold. It also gave a Ki [2] greater than 10000 nM, a Ki (mu opioid receptors) of 1570 nM and an IC50 (NMB receptor [3]; [6]) of 1.78 ± 0.295 µM. For the same molecule, the IC50 (NMB receptor [3]; [7]) was 1.2 to 1.8 µM, the “effect at 10 μM on NMB-stimulated increase in [3H]IP” value (NMB receptor [3]) was “completely inhibited” and the “[3H]IP, analog Alone (10 μM)” value (NMB receptor [3]) was 12 ± 4 dym × 10^3. The “[3H]IP, analog Plus NMB (3 nM)” value (NMB receptor [3]) was 15 ± 2 dym × 10^3 and the Ki (NMB receptor [4]) was 850 ± 300 nM.
